Results from patent publication US20100105657A1, “Compounds, Process for their Preparation, Intermediates, Pharmaceutical Compositions and their use in the Treatment of 5-HT6 Mediated Disorders such as Alzheimer's Disease, Cognitive Disorders, Cognitive Impairment Associated with Schizophrenia, Obesity and Parkinson's Disease” (AstraZeneca AB, priority 2005, published 2010).

Biological target: T1, Rat Striatal 5-HT6 Receptors (Rattus norvegicus, UniProt P31388)
T1 construct: Striatal tissue from adult rats (Sprague-Dawley, 320-370 g, B & K Sweden) were dissected out, weighed and homogenized; from tissue; host or cells: rat striatum (Sprague-Dawley) membranes
Experiment: [125I]SB258585 binding to rat striatal 5-HT6 receptors
Conditions: competition with [125I]SB258585, rat striatal membranes
Protocol: Method for [125I]SB258585 Binding to Rat Striatal 5-HT6 Receptors
[^125I]SB258585 (1) with specific radioactivity 2000 Ci/mmol was purchased from Amersham Biosciences Europe GmbH, Freiburg, Germany. Other chemicals were purchased from commercial sources and were of analytical grade.
Striatal tissue from adult rats (Sprague-Dawley, 320-370 g, B & K Sweden) were dissected out, weighed and homogenized in buffer containing 50 mM Tris-HCl, 4 mM MgCl2, 1 mM EDTA, 10 μM pargyline and protease inhibitor (Complete, Roche Diagnostics) pH 7.4 using an Ultra-Turrax T8 (IKA Labortechnik, Germany). The tissue homogenate was centrifuged at 48 000×g for 10 min and the pellet was resuspended and recentrifuged as above. […]
Saturation binding studies were carried out in duplicate with 1-3 mg w.w. per tube in 0.5 ml buffer (50 mM Tris, 4 mM MgCl2, 100 mM NaCl, 1 mM EDTA, 5 mM ascorbate and 10 μM pargyline at pH 7.4), 0.2 nM [^125I]SB258585 and unlabelled SB258585 to give a final concentration range of 0.23-20 nM (12 conc.). Non-specific binding was determined in the presence of 10 μM methiothepin. […] The radioactivity was determined in a Packard Tri-Carb 2900TR liquid scintillation counter. Data were analyzed by non-linear regression analyses using PRISM 4.00 (GraphPad Software Inc., San Diego, Calif.). […]

T1 sequence (P31388 whole entry): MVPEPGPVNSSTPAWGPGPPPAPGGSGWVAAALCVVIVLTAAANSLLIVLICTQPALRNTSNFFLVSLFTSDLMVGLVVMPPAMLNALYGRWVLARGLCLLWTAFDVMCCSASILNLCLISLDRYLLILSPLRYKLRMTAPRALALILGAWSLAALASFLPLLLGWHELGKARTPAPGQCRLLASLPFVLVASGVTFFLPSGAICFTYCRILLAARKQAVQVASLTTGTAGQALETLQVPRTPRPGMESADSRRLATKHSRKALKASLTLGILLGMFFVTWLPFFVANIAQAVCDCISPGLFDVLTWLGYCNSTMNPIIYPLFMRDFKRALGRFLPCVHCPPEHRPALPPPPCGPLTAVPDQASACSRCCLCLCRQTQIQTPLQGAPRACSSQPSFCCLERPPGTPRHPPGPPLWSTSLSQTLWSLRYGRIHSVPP

Row | Ki | SMILES
1 | 31 ± 9 nM | CN1CCOc2ccc(NS(=O)(=O)c3cccc(Cl)c3Cl)cc2C1 [Example 6, 2,3-dichloro-N-(4-methyl-2,3,4,5-tetrahydro-1,4-benzoxazepin-7-yl)benzenesulfonamide]
2 | 32 ± 14 nM | O=S(=O)(Nc1ccc2c(c1)CNCCC2)c1csc(C(F)(F)F)c1-c1ccccc1 [Example 39, 4-phenyl-N-(2,3,4,5-tetrahydro-1H-2-benzazepin-8-yl)-5-(trifluoromethyl)thiophene-3-sulfonamide]
